Data from publication PMC6364417, “Kinase inhibitor library screening identifies synergistic drug combinations effective in sensitive and resistant melanoma cells” (Journal of Experimental & Clinical Cancer Research : CR, 2019).

How the values were obtained:
Assay in all cases: Kinase inhibitor library screening, PrestoBlue cell viability, 1 or 10 μM, 72 h
A375 cells (parental) = test system: A375 cells (parental)
Description: (§1) After 72 h of treatment, cell viability was assessed using the PrestoBlue Cell Viability Reagent (ThermoFisher Scientific). Measurements were performed with the CLARIOstar Monochromator microplate reader (BMG Labtech).
(§2) Kinase inhibitor library screening. […] Each cell line was treated in its sensitive form (parental), and also as 2 resistant derivatives, which were made resistant to either Vemurafenib (XP) or Dabrafenib (GP). Drugs were added at 2 different concentrations, 1 and 10 μM, for 72 h and cell viability was assessed using the PrestoBlue Cell Viability assay. Results are depicted as % viability compared to untreated cells. Each cell line was analyzed at least in duplicate. […] (XLSX 95 kb)

501Mel cells (parental) = conditions: 72 h
Description: as §1, §2

[1] = test system: A375-XP cells (Vemurafenib-resistant)
Description: as §1, §2

IGR37 cells (parental) = test system: IGR37 cells (parental)
Description: as §1, §2

[2] = test system: 501Mel-XP cells (Vemurafenib-resistant); conditions: 72 h
Description: as §1, §2

[3] = test system: A375-GP cells (Dabrafenib-resistant)
Description: as §1, §2

[4] = test system: IGR37-GP cells (Dabrafenib-resistant)
Description: as §1, §2

[5] = test system: 501Mel-GP cells (Dabrafenib-resistant); conditions: 72 h
Description: as §1, §2

[6] = test system: IGR37-XP cells (Vemurafenib-resistant)
Description: as §1, §2

Structure (SMILES): CC(=O)NCC(=O)N1[C@@H]2CC[C@H]1c1ccc(Nc3ncc(C(F)(F)F)c(NC4CCC4)n3)cc12 [PF-03814735]
- cell viability (kinase inhibitor library screening) (A375 cells (parental); A375 Parental, 10μΜ, 72 h): 8.5%
- cell viability (kinase inhibitor library screening) (A375 cells (parental); A375 Parental, 1μΜ, 72 h): 32.3%
- cell viability (kinase inhibitor library screening) (501Mel cells (parental); 501Mel Parental, 1μΜ): 82.8%
- cell viability (kinase inhibitor library screening) (501Mel cells (parental); 501Mel Parental, 10μΜ): 24.0%
- cell viability (kinase inhibitor library screening) ([1]; A375 XP, 1μΜ, 72 h): 40.9%
- cell viability (kinase inhibitor library screening) ([1]; A375 XP, 10μΜ, 72 h): 12.4%
- cell viability (kinase inhibitor library screening) (IGR37 cells (parental); IGR37 Parental, 1μΜ, 72 h): 88.9%
- cell viability (kinase inhibitor library screening) (IGR37 cells (parental); IGR37 Parental, 10μΜ, 72 h): 37.6%
- cell viability (kinase inhibitor library screening) ([2]; 501Mel XP, 1μΜ): 72.2%
- cell viability (kinase inhibitor library screening) ([2]; 501Mel XP, 10μΜ): 3.8%
- cell viability (kinase inhibitor library screening) ([3]; A375 GP, 1μΜ, 72 h): 35.1%
- cell viability (kinase inhibitor library screening) ([3]; A375 GP, 10μΜ, 72 h): 3.7%
- cell viability (kinase inhibitor library screening) ([4]; IGR37 GP, 1μΜ, 72 h): 91.2%
- cell viability (kinase inhibitor library screening) ([4]; IGR37 GP, 10μΜ, 72 h): 10.4%
- cell viability (kinase inhibitor library screening) ([5]; 501Mel GP, 1μΜ): 89.2%
- cell viability (kinase inhibitor library screening) ([5]; 501Mel GP, 10μΜ): 8.3%
- cell viability (kinase inhibitor library screening) ([6]; IGR37 XP, 1μΜ, 72 h): 69.3%
- cell viability (kinase inhibitor library screening) ([6]; IGR37 XP, 10μΜ, 72 h): 2.0%

Structure (SMILES): Nc1nc(Nc2ccc(S(N)(=O)=O)cc2)nn1C(=O)c1c(F)cccc1F [JNJ-7706621]
- cell viability (kinase inhibitor library screening) (A375 cells (parental); A375 Parental, 10μΜ, 72 h): 5.3%
- cell viability (kinase inhibitor library screening) (A375 cells (parental); A375 Parental, 1μΜ, 72 h): 89.1%
- cell viability (kinase inhibitor library screening) (501Mel cells (parental); 501Mel Parental, 10μΜ): 0.466%
- cell viability (kinase inhibitor library screening) ([1]; A375 XP, 1μΜ, 72 h): 93.1%
- cell viability (kinase inhibitor library screening) ([1]; A375 XP, 10μΜ, 72 h): 5.9%
- cell viability (kinase inhibitor library screening) (IGR37 cells (parental); IGR37 Parental, 1μΜ, 72 h): 95.5%
- cell viability (kinase inhibitor library screening) (IGR37 cells (parental); IGR37 Parental, 10μΜ, 72 h): 9.4%
- cell viability (kinase inhibitor library screening) ([2]; 501Mel XP, 1μΜ): 97.8%
- cell viability (kinase inhibitor library screening) ([2]; 501Mel XP, 10μΜ): -0.273%
- cell viability (kinase inhibitor library screening) ([3]; A375 GP, 1μΜ, 72 h): 89.4%
- cell viability (kinase inhibitor library screening) ([3]; A375 GP, 10μΜ, 72 h): 3.0%
- cell viability (kinase inhibitor library screening) ([4]; IGR37 GP, 1μΜ, 72 h): 99.1%
- cell viability (kinase inhibitor library screening) ([4]; IGR37 GP, 10μΜ, 72 h): 18.2%
- cell viability (kinase inhibitor library screening) ([5]; 501Mel GP, 1μΜ): 110.0%
- cell viability (kinase inhibitor library screening) ([5]; 501Mel GP, 10μΜ): 0.28%
- cell viability (kinase inhibitor library screening) ([6]; IGR37 XP, 1μΜ, 72 h): 106.1%
- cell viability (kinase inhibitor library screening) ([6]; IGR37 XP, 10μΜ, 72 h): 2.5%

Structure (SMILES): Cc1ccc(NC(=O)c2cccc(C(C)(C)C#N)c2)cc1Nc1ccc2ncn(C)c(=O)c2c1 [AZ628]
- Cell viability in kinase inhibitor library screening, A375 Parental, 10μΜ (A375 cells (parental); A375 Parental, 10μΜ, 72 h): 23.0
- Cell viability in kinase inhibitor library screening, A375 Parental, 1μΜ (A375 cells (parental); A375 Parental, 1μΜ, 72 h): 26.2
- Cell viability in kinase inhibitor library screening, 501Mel Parental, 1μΜ (501Mel cells (parental); 501Mel Parental, 1μΜ, in %): 59.7
- Cell viability in kinase inhibitor library screening, 501Mel Parental, 10μΜ (501Mel cells (parental); 501Mel Parental, 10μΜ, in %): 64.1
- Cell viability in kinase inhibitor library screening, A375 XP, 1μΜ ([1]; A375 XP, 1μΜ, 72 h): 20.4
- Cell viability in kinase inhibitor library screening, A375 XP, 10μΜ ([1]; A375 XP, 10μΜ, 72 h): 13.2
- Cell viability in kinase inhibitor library screening, IGR37 Parental, 1μΜ (IGR37 cells (parental); IGR37 Parental, 1μΜ, 72 h, in %): 45.5
- Cell viability in kinase inhibitor library screening, IGR37 Parental, 10μΜ (IGR37 cells (parental); IGR37 Parental, 10μΜ, 72 h, in %): 41.8
- Cell viability in kinase inhibitor library screening, 501Mel XP, 1μΜ ([2]; 501Mel XP, 1μΜ, in %): 116.3
- Cell viability in kinase inhibitor library screening, 501Mel XP, 10μΜ ([2]; 501Mel XP, 10μΜ, in %): 79.0
- Cell viability in kinase inhibitor library screening, A375 GP, 1μΜ ([3]; A375 GP, 1μΜ, 72 h): 19.6
- Cell viability in kinase inhibitor library screening, A375 GP, 10μΜ ([3]; A375 GP, 10μΜ, 72 h): 21.0
- Cell viability in kinase inhibitor library screening, IGR37 GP, 10μΜ ([4]; IGR37 GP, 10μΜ, 72 h): 55.7%
- Cell viability in kinase inhibitor library screening, IGR37 GP, 1μΜ ([4]; IGR37 GP, 1μΜ, 72 h, in %): 78.8
- Cell viability in kinase inhibitor library screening, 501Mel GP, 10μΜ ([5]; 501Mel GP, 10μΜ, in %): 83.3
- Cell viability in kinase inhibitor library screening, IGR37 XP, 10μΜ ([6]; IGR37 XP, 10μΜ, 72 h): 15.2%
- Cell viability in kinase inhibitor library screening, IGR37 XP, 1μΜ ([6]; IGR37 XP, 1μΜ, 72 h, in %): 60.5

Structure (SMILES): CC(C)(C)c1cc(NC(=O)Nc2ccc(-c3cn4c(n3)sc3cc(OCCN5CCOCC5)ccc34)cc2)no1 [Quizartinib (AC220)]
- viability at 1 µM (A375 cells (parental); Homo sapiens, A-375, 72 h, read-out: cell viability, A375 Parental, 1μΜ): 104%
- viability at 10 µM (A375 cells (parental); Homo sapiens, A-375, 72 h, read-out: cell viability, A375 Parental, 10μΜ): 96.3%
- viability at 1 µM (501Mel cells (parental); Homo sapiens, read-out: cell viability, 501Mel Parental, 1μΜ): 95.1%
- viability at 10 µM (501Mel cells (parental); Homo sapiens, read-out: cell viability, 501Mel Parental, 10μΜ): 89.6%
- viability at 1 µM ([1]; Homo sapiens, A-375, 72 h, read-out: cell viability, A375 XP, 1μΜ): 108%
- viability at 10 µM ([1]; Homo sapiens, A-375, 72 h, read-out: cell viability, A375 XP, 10μΜ): 96.3%
- viability at 1 µM (IGR37 cells (parental); Homo sapiens, IGR-37, 72 h, read-out: cell viability, IGR37 Parental, 1μΜ): 97.3%
- viability at 10 µM (IGR37 cells (parental); Homo sapiens, IGR-37, 72 h, read-out: cell viability, IGR37 Parental, 10μΜ): 102%
- viability at 1 µM ([2]; Homo sapiens, read-out: cell viability, 501Mel XP, 1μΜ): 94.6%
- viability at 10 µM ([2]; Homo sapiens, read-out: cell viability, 501Mel XP, 10μΜ): 80.5%
- viability at 1 µM ([3]; Homo sapiens, A-375, 72 h, read-out: cell viability, A375 GP, 1μΜ): 99.4%
- viability at 10 µM ([3]; Homo sapiens, A-375, 72 h, read-out: cell viability, A375 GP, 10μΜ): 88.8%
- viability at 1 µM ([4]; Homo sapiens, IGR-37, 72 h, read-out: cell viability, IGR37 GP, 1μΜ): 67.8%
- viability at 10 µM ([4]; Homo sapiens, IGR-37, 72 h, read-out: cell viability, IGR37 GP, 10μΜ): 28.8%
- viability at 1 µM ([5]; Homo sapiens, read-out: cell viability, 501Mel GP, 1μΜ): 109%
- viability at 10 µM ([5]; Homo sapiens, read-out: cell viability, 501Mel GP, 10μΜ): 93%
- viability at 1 µM ([6]; Homo sapiens, IGR-37, 72 h, read-out: cell viability, IGR37 XP, 1μΜ): 43.9%
- viability at 10 µM ([6]; Homo sapiens, IGR-37, 72 h, read-out: cell viability, IGR37 XP, 10μΜ): 7.2%
